Test results reported in patent US8987256B2, “Oxo-heterocyclic substituted carboxylic acid derivatives and the use thereof” (Bayer Intellectual Property GmbH, priority 2008, dated 2015).

Key:
[1] = tested on: saphenous artery rings; assay: Vasorelaxant effect in vitro (phenylephrine-contracted artery rings); design: species or system Rabbits; conditions: Oryctolagus cuniculus, concentration reducing phenylephrine-induced contraction by 50%
Method: Rabbits are anesthetized and sacrificed by intravenous injection of thiopental sodium (about 50 mg/kg) and exsanguinated. The saphenous artery is removed and divided into rings 3 mm wide. The rings are mounted singly on in each case a pair of triangular hooks open at the end and made of 0.3 mm-thick special wire (Remanium®). Each ring is placed under an initial tension in 5 ml organ baths with Krebs-Henseleit solution which is at 37° C., is gassed with carbogen and has the following composition: NaCl 119 mM; KCl 4.8 mM; CaCl2×2H2O 1 mM; MgSO4×7H2O 1.4 mM; KH2PO4 1.2 mM; NaHCO3 25 mM; glucose 10 mM; bovine serum albumin 0.001%. The force of contraction is detected with Statham UC2 cells, amplified and digitized via A/D converters (DAS-1802 HC, Keithley Instruments, Munich) and recorded in parallel on chart recorders. Contractions are induced by addition of phenylephrine.
After several (generally 4) control cycles, the substance to be investigated is added in each further run in increasing dosage, and the level of the contraction achieved under the influence of the test substance is compared with the level of the contraction reached in the last preceding run. The concentration necessary to reduce the contraction reached in the preceding control by 50% is calculated from this (IC50). The standard application volume is 5 μl. The proportion of DMSO in the bath solution corresponds to 0.1%.

[2] = molecular target: T1, recombinant guanylate cyclase reporter cell line (Rattus norvegicus, UniProt P20595); assay: sGC-activating activity in the CHO reporter cell in vitro; type: cell-based
T1 construct: expressed in transfected cells; host or cells: CHO reporter cell line
T1 sequence (P20595 1-619): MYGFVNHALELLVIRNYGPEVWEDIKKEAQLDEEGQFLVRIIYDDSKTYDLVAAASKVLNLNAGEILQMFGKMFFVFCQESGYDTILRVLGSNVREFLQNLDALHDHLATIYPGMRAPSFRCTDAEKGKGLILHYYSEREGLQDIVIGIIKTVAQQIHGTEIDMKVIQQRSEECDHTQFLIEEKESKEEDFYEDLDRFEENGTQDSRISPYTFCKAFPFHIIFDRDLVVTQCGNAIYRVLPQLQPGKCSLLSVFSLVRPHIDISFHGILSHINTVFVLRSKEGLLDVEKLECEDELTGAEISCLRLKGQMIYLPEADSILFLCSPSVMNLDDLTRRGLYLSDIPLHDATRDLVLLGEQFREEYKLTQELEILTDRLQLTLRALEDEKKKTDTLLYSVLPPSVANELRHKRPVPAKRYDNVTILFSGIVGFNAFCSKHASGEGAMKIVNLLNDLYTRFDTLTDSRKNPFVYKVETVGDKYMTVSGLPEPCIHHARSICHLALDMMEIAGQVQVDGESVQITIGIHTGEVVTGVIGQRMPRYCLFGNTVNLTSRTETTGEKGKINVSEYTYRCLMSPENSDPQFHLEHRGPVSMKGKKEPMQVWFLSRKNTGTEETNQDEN
T1 sequence (P19686 1-690 partner): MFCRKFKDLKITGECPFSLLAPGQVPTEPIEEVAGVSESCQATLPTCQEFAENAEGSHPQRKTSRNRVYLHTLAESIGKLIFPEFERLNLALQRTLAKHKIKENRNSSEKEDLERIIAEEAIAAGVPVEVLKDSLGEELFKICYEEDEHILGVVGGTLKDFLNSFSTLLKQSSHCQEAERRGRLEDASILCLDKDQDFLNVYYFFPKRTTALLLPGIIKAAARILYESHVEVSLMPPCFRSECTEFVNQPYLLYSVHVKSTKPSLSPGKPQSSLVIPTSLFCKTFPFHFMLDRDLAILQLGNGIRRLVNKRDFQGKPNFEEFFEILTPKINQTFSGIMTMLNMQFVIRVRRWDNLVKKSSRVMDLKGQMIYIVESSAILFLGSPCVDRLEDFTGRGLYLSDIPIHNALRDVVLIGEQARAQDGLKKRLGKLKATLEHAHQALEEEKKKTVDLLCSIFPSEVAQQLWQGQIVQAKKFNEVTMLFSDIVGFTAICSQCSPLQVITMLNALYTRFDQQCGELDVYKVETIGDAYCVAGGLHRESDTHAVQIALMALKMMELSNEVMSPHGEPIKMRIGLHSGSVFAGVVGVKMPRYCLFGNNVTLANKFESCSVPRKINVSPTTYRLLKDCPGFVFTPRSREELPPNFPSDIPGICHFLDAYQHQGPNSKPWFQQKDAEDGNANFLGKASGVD
Method: The cellular action of the compounds according to the invention is determined at a recombinant guanylate cyclase reporter cell line, as described in F. Wunder et al., Anal. Biochem. 339, 104-112 (2005).

[3] = molecular target: T2, soluble guanylate cyclase (sGC) (Rattus norvegicus, UniProt P20595); assay: Activating action at the sGC enzyme in vitro (PPi detection, luciferase); type: biochemical; conditions: for EC50: read-out: EC50 (concentration at 50% of maximum efficacy), activating action at the sGC enzyme
T2 construct: made in house; host or cells: baculovirus/Sf9 insect cells
T2 sequence (P20595 1-619): T1 sequence (P20595 1-619)
T2 sequence (P19686 1-690 partner): T1 sequence (P19686 1-690 partner)
How it was run: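 Rat sGC (0–10 nM) preincubated 10 min at room temperature with compound in TEA buffer, pH 7.5; reaction started with GTP (1.25 mM solution). PPi formed read continuously by luciferase luminescence; stimulation expressed relative to unstimulated enzyme. Heme-free enzyme tested after 30 min with 25 μM ODQ.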

IC50 [1] | MEC (minimum effective concentration), sGC-activating activity in the CHO reporter cell [2] | MEC (minimum effective concentration), activating action at the sGC enzyme [3] | EC50 [3] | Compound
0.158 µM | 1 nM | 0.9 nM | 0.021 µM | O=C(Nc1cc(F)cc(CC2(C(=O)O)CC2)c1)C(c1ccc(CN2N=C(c3ccccc3)OCC2=O)cc1)C1CCCC1 (single isomer, unassigned) [Example 237, 1-{3-[(Cyclopentyl{4-[(5-oxo-2-phenyl-5,6-dihydro-4H-1,3,4-oxadiazin-4-yl)methyl]phenyl}acetyl)amino]-5-fluorobenzyl}cyclopropanecarboxylic acid]
0.011 µM | 0.1 nM | 0.4 nM | 0.019 µM | O=C(Nc1cccc(CC2(C(=O)O)CC2)c1)[C@H](c1ccc(CN2Cc3c(F)cccc3C2=O)cc1)C1CCCC1 [Example 214]
0.49 µM | 1 nM | 1 nM | 0.02 µM | O=C(O)CCc1ccc(F)c(NC(=O)[C@H](c2ccc(CN3N=C(c4ccccc4)OCC3=O)cc2)C2CCCC2)c1 [Example 224]

Further lines, the molecule ahead of its results:

Compound | IC50 [1] | MEC (minimum effective concentration), sGC-activating activity in the CHO reporter cell [2] | MEC (minimum effective concentration), activating action at the sGC enzyme [3] | EC50 [3]
O=C(Nc1cccc(CC2(C(=O)O)CC2)c1)C(c1ccc(Cn2nc(-c3ccccc3)ccc2=O)cc1)C1CCCC1 (stereo not drawn) [Example 156, 1-{3-[(cyclopentyl{4-[(6-oxo-3-phenylpyridazin-1(6H)-yl)methyl]phenyl}acetyl)amino]benzyl}-cyclopropanecarboxylic acid] | 0.045 µM | 3 nM | 0.2 nM | 0.0054 µM
CC(C(C(=O)Nc1cc(CC2(C(=O)O)CC2)ccc1F)c1ccc(CN2N=C(c3ccccc3)OCC2=O)cc1)C(F)(F)F (stereo not drawn) [Example 186, 1-{4-fluoro-3-[(4,4,4-trifluoro-3-methyl-2-{4-[(5-oxo-2-phenyl-5,6-dihydro-4H-1,3,4-oxadiazin-4-yl)methyl]phenyl}butanoyl)amino]benzyl}-cyclopropanecarboxylic acid] | 0.037 µM | 0.2 nM | 0.1 nM | 0.0015 µM
O=C(Nc1cccc(CC2(C(=O)O)CC2)c1)[C@H](c1ccc(CN2N=C(c3ccccc3)OCC2=O)cc1)C1CCCC1 [Example 204, (+)-1-(3-{[(2S)-2-Cyclopentyl-2-{4-[(5-oxo-2-phenyl-5,6-dihydro-4H-1,3,4-oxadiazin-4-yl)-methyl]phenyl}acetyl]amino}benzyl)cyclopropane carboxylic acid] | 0.086 µM | 1 nM | 0.5 nM | 0.018 µM
